Test results reported in patent US4318864A, “Process for making s-phenenyltris(sulfonylimino)tri-benzene mono- and di-sulfonic acids and salts” (American Cyanamid Company, priority 1980, dated 1982).
Structures can show the parent of a compound that is named as a salt. Where two headings read alike, the source gives them in different places.

How the values were obtained:
activated human C1 = activated human C1 (Homo sapiens, UniProt P09871); experiment: Test Code 026 (C1 inhibitor); format: biochemical; conditions: serial dilution assay, twofold dilutions; higher well number indicates higher activity
[1] = system: late components of human complement (C3-C9); experiment: Test Code 035 (C3-C9 inhibitor), lysis of EAC 142; format: biochemical; set-up: key: N = Negative; conditions: serial dilution assay, twofold dilutions
shunt pathway = experiment: Test Code 036 (C-Shunt inhibitor), lysis of human erythrocytes via cobra venom factor activated shunt pathway; format: biochemical; set-up: key: N = Negative; conditions: serial dilution assay, twofold dilutions
[2] = system: complement activity in serum; experiment: Guinea Pig Intraperitoneal Test (GPIP); format: in vivo; conditions: Cavia porcellus, ip, 200 mg./kg. i.p.

O=S(=O)(O)c1cc(NS(=O)(=O)c2cc(S(=O)(=O)Nc3cc(S(=O)(=O)O)cc(S(=O)(=O)O)c3)cc(S(=O)(=O)Nc3cc(S(=O)(=O)O)cc(S(=O)(=O)O)c3)c2)cc(S(=O)(=O)O)c1 [5,5',5"-[s-Phenenyltris(sulfonylimino)]tri-m-benzenedisulfonic acid, hexasodium salt]
Cl 026 Wells (activated human C1): +8 Wells | C-Late 035 Wells [1]: N | Shunt Inhibition 036 Wells (shunt pathway): N | inhibition at 200 mg/kg ([2]; 0.5 h, 30 min after injection, read-out: In Vivo Activity (Guinea pig) % Inhibition Intraperitoneal, 30 min): -75% | inhibition at 200 mg/kg ([2]; 1 h, 60 min after injection, read-out: In Vivo Activity (Guinea pig) % Inhibition Intraperitoneal, 60 min): -75% | inhibition at 200 mg/kg ([2]; 2 h, 120 min after injection, read-out: In Vivo Activity (Guinea pig) % Inhibition Intraperitoneal, 120 min): -81%
